This is an account of results in US7842703B2, “Substituted benzofused derivatives and their use as vanilloid receptor ligands” (Glenmark Pharmaceuticals S.A., priority 2005, dated 2010).

Where a name gives a salt, the structure may show the parent alone. Some results are limits rather than exact numbers.

The target in this test is T1, Human TRPV1 expressing CHO cells (Homo sapiens, UniProt Q8NER1).
T1 construct: expressed in transfected cells; host or cells: CHO cells under G-418 selection
In words: Screening for TRPV1 antagonist using the 45Calcium uptake assay (inhibition of capsaicin induced cellular uptake of radioactive calcium). Type of test: cell-based. The following applies: for inhibition at 1 µM: CHO; for inhibition at 1 µM / % inhibition of ^45Ca uptake at 1 μM: test compound 1 μM, capsaicin 250 nM, relative to maximum ^45Ca uptake induced by capsaicin alone; for IC50: inhibition of capsaicin (250 nM) induced ^45Ca uptake. As to the method: The inhibition of TRPV1 receptor activation was followed as inhibition of capsaicin induced cellular uptake of radioactive calcium which represents calcium influx exclusively through the plasma membrane associated TRPV1 receptor.
Stock solution of capsaicin was made in ethanol and test compounds in 100% DMSO. Stock solutions were diluted to appropriate final concentrations in assay buffer keeping the final DMSO concentration between 0.1% and 0.55%.
^45Ca was used at a final concentration of 2.5 μCi/ml (^45Ca, ICN).
Assay buffer was composed of F-12 DMEM medium supplemented with 1.8 mM CaCl2 (final conc.) and 0.1% Bovine serum albumin. (BSA from SIGMA)
Wash buffer was tyrodes solution supplemented with 0.1% BSA and 1.8 mM calcium. Lysis buffer contained 50 mM Tris-HCl, pH7.5, 150 mM NaCl, 1% Triton X-100, 0.5% deoxycholate and 0.1% Sodium dodicyl sulphate (SDS, SIGMA)
Assay was carried out with some modifications the of procedure as described by Toth et. al. (See Toth A et. al., Life Sciences 73 p 487-498, 2003). Human TRPV1 expressing CHO cells were grown in F-12 DMEM (Dulbecco's modified Eagle's medium—GIBCO) medium with 10% FBS (fetal bovine serum Hyclone), 1% penicillin-streptomycin solution, 400 μg/ml of G-418. Cells were seeded 48 h prior to the assay in 96 well plates so as to get ˜50,000 cells per well on the day of experiment. Plates were incubated at 37° C. in the presence of 5% CO2. Cells were then washed twice with 200 μl of assay buffer and re-suspended in 144 μl of the same. Assay was carried out at 30° C. in total volume of 200 μl. Test compounds were added to the cells fifteen minutes before addition of capsaicin, Final concentration of capsaicin in the assay was 250 nM. After 5 minutes of agonist treatment, drug was washed out and wells rinsed with 300 μl of ice cold wash buffer 3×. The cells were lysed in 50 μl lysis buffer for 20 min. 40 μl of cell lysate was mixed with 150 μl of Microscint PS, left overnight for equilibration. Radioactivity in samples was measured as counts per minute (cpm) using Packard Biosciences Top Count. The drug/vehicle/capsaicin treated ^45Ca uptake values were normalized over basal ^45Ca value. Data was expressed as % inhibition of ^45Ca uptake by test compound with respect to maximum ^45Ca uptake induced by capsaicin alone. IC50 value was calculated from dose response curve by nonlinear regression analysis using GraphPadPRISM software.

T1 sequence (Q8NER1 whole entry): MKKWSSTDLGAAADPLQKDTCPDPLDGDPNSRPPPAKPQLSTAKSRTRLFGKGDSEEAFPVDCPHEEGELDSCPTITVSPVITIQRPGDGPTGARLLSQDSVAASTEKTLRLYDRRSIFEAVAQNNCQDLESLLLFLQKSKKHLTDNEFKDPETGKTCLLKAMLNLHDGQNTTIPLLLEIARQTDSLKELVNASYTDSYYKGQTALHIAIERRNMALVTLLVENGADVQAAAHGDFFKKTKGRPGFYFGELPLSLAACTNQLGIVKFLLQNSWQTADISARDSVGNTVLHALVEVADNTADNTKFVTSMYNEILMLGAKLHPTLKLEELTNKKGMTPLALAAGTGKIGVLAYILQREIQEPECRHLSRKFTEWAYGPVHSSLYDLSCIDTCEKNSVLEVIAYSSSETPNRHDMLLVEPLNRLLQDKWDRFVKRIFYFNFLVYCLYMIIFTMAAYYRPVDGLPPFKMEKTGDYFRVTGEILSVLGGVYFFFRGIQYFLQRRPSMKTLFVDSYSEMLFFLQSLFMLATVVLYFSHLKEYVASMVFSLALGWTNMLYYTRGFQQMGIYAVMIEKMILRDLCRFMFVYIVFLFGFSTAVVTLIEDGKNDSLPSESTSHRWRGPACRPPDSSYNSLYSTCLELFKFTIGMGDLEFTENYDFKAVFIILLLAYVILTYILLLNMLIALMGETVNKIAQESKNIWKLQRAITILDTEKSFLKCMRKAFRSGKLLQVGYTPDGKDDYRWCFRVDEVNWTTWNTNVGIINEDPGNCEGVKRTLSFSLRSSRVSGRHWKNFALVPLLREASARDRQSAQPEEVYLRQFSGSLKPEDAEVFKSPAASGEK

The inhibition is the relative decrease from the control value, in per cent. The term IC50 denotes the midpoint of a concentration-inhibition curve. Turning to `COc1ccc2c(c1)OC1(CCC1)CC2NC(=O)Nc1cccc2cnccc12` (racemic) [Example 47, (±) 1-(3,4-Dihydro-7-methoxy-spiro[2H-1-benzopyran-2,1′-cyclobutane]-4-yl)-3-(isoquinolin-5-yl)urea], the inhibition at 1 µM was more than 50% and the IC50 stood at 0.21 nM.
For the molecule `O=C(Nc1nnc(-c2ccc([N+](=O)[O-])cc2)s1)NC1CC2(CCC2)Oc2ccccc21` (racemic) [Example 24, (±) 1-(3,4-Dihydro-spiro[2H-1-benzopyran-2,1′-cyclobutane]-4-yl)-3-(5-(4-nitrophenyl)-1,3,4-thiadiazol-2-yl)urea], the inhibition at 1 µM was less than 50%.
`Cc1cc2c(cc1Br)C(NC(=O)Nc1cccc3cnccc13)CC1(CCC1)O2` (racemic) [Example 67, (±) 1-(6-Bromo-3,4-dihydro-7-methylspiro[2H-1-benzopyran-2,1′-cyclobutane]-4-yl)-3-(isoquinolin-5-yl)urea]: the inhibition at 1 µM was more than 50% and the IC50 was 447 nM.
Taken in the same sequence, the figures for `O=C(Nc1ccc(Cl)c2cnccc12)NC1CC2(CCC2)Oc2ccc(F)cc21` (racemic) [Example 71, (±) 1-(6-Fluoro-3,4-dihydro-spiro[2H-1-benzopyran-2,1′-cyclobutane]-4-yl)-3-(8-chloroisoquinolin-5-yl)urea] were more than 50% and 591 nM.
As to `O=C(Nc1cccc2cnccc12)NC1CC2(CCC2)Oc2ccccc21` (single isomer, unassigned; (+)) [Example 4, (+) 1-(3,4-Dihydro-spiro-[2H-1-benzopyran-2,1′-cyclobutan]-4-yl)-3-(isoquinolin-5-yl)urea], the inhibition at 1 µM is more than 50% and the IC50 stood at 7.8 nM.
As for `O=C(Nc1cccc2cnccc12)NC1CC2(CCC2)Oc2cc(O)ccc21` (racemic) [Example 46, (±) 1-(3,4-Dihydro-7-hydroxy-spiro[2H-1-benzopyran-2,1′-cyclobutane]-4-yl)-3-(isoquinolin-5-yl)urea], the inhibition at 1 µM is less than 50%.
On the same count and under the same terms, the figure for `N#Cc1cccc2c1OC1(CCC1)CC2NC(=O)Nc1cccc2cnccc12` (racemic) [Example 58, (±) 1-(8-Cyano-3,4-dihydro-spiro[2H-1-benzopyran-2,1′-cyclobutane]-4-yl)-3-(isoquinolin-5-yl)urea] is less than 50%.
For the molecule `Cc1cc2c(NC(=O)NC3CC4(CCC4)Oc4ccccc43)cccc2cn1` (racemic) [Example 7, (±) 1-(3,4-Dihydro-spiro[2H-1-benzopyran-2,1′-cyclobutane]-4-yl)-3-(3-methylisoquinolin-5-yl)urea], the inhibition at 1 µM is more than 50% and the IC50 is 183 nM.
The corresponding values for `O=C(Nc1cccc2cnccc12)NC1CC2(CCC2)Sc2ccccc21` (racemic) [Example 81, (±) 1-(3,4-dihydro-spiro[2H-1-benzothiopyran-2,1′-cyclobutan]-4-yl)-3-(isoquinolin-5-yl)urea] are more than 50% and 5.2 nM.
`O=C(Nc1csc2cnccc12)NC1CC2(CCC2)Oc2ccccc21` (racemic) [Example 20, (±) 1-(3,4-Dihydro-spiro[2H-1-benzopyran-2,1′-cyclobutane]-4-yl)-3-(thieno[2,3-c]pyridine-3-ylurea]: the “% inhibition of ^45Ca uptake at 1 μM” value is given as less than 50%.
For `Cc1cc2c(NC(=O)NC3CC4(CCC4)Oc4ccc(F)cc43)cccc2cn1` (racemic) [Example 72, (±) 1-(3,4-Dihydro-6-fluoro-spiro[2H-1-benzopyran-2,1′-cyclobutane]-4-yl)-3-(3-methylisoquinolin-5-yl)urea], the inhibition at 1 µM is more than 50% and the IC50 was 469 nM.
For the molecule `Nc1ccc2c(c1)C(NC(=O)Nc1cccc3cnccc13)CC1(CCC1)O2` (racemic) [Example 79, (±) 1-(6-Amino-3,4-dihydro-spiro[2H-1-benzopyran-2,1′-cyclobutane]-4-yl)-3-(isoquinolin-5-yl)urea], the inhibition at 1 µM is less than 50%.
In the case of `Cc1cc2c(NC(=O)NC3CC4(CCC4)Oc4cc(Cl)ccc43)cccc2cn1` (racemic) [Example 57, (±) 1-(7-Chloro-3,4-dihydro-spiro[2H-1-benzopyran-2,1′-cyclobutane]-4-yl)-3-(3-methylisoquinolin-5-yl)urea], the inhibition at 1 µM was more than 50% and the IC50 came out at 442 nM.
The corresponding values for `O=C(Nc1cccc2cnccc12)NC1CC2(CCC2)Oc2cc(OC(F)F)ccc21` (racemic) [Example 54, (±) 1-(7-Difluoromethoxy-3,4-dihydro-spiro[2H-1-benzopyran-2,1′-cyclobutane]-4-yl)-3-(isoquinolin-5-yl)urea. Hydrochloride] are more than 50% and 2.23 nM.
For `O=C(Nc1cccc2cnccc12)NC1CC2(CCC2)Oc2ccccc21` (single isomer, unassigned; (-)) [Example 5, (−) 1-(3,4-Dihydro-spiro-[2H-1-benzopyran-2,1′-cyclobutan]-4-yl)-3-(isoquinolin-5-yl)urea], the IC50 was 304 nM and the “% inhibition of ^45Ca uptake at 1 μM” value was more than 50%.
`O=C(Nc1cccc2nsnc12)NC1CC2(CCC2)Oc2ccccc21` (stereo not shown) [Example 29, N-2,1,3-benzothiadiazol-4-yl-N′-3,3′,4,4′-tetrahydro-2′H-spiro[chromene-2,1′-cyclobutan]-4-ylurea (N-2,1,3-benzothiadiazol-4-yl-N′-3,4-dihydro-2H-spiro[chromene-2,1′-cyclobutan]-4-ylurea)]: the “% inhibition of ^45Ca uptake at 1 μM” value was less than 50%.
For “(±) 1-(3,4-Dihydro-6-fluoro-spiro[2H-1-benzopyran-2,1′-cyclobutane]-4-yl)-3-(isoquinolin-5-yl)urea [Example 50]”, the IC50 came out at 7.8 nM and the “% inhibition of ^45Ca uptake at 1 μM” value was more than 50%.
Consider `O=C(Nc1cccc2c(=O)[nH]ccc12)NC1CC2(CCC2)Oc2ccccc21` (stereo not shown) [Example 30, N′-(1-oxo-1,2-dihydroisoquinolin-5-yl)-N-3,3′,4,4′-tetrahydro-2′H-spiro[chromene-2,1′-cyclobutan]-4-ylurea (N′-(1-oxo-1,2-dihydroisoquinolin-5-yl)-N-3,4-dihydro-2H-spiro[chromene-2,1′-cyclobutan]-4-ylurea)], for which the “% inhibition of ^45Ca uptake at 1 μM” value is listed as less than 50%.
On to `COc1ccc2nc(NC(=O)NC3CC4(CCC4)Oc4ccccc43)sc2c1` (racemic) [Example 14, (±) 1-(3,4-Dihydro-spiro[2H-1-benzopyran-2,1′-cyclobutane]-4-yl)-3-(6-methoxy-1,3-benzothiazol-2-yl)urea], for which the inhibition at 1 µM was less than 50%.
Regarding `O=C(Nc1cccc2cnccc12)NC1CC2(CCC2)Oc2c(F)cc(F)cc21` (single isomer, unassigned; (+)) [Example 59], the inhibition at 1 µM is more than 50% and the IC50 was determined as 7.59 nM.
As for `O=C(Nc1nc2ccc(Cl)cc2s1)NC1CC2(CCC2)Oc2ccccc21` (racemic) [Example 11, (±) 1-(3,4-Dihydro-spiro[2H-1-benzopyran-2,1′-cyclobutane]-4-yl)-3-(6-chloro-1,3-benzothiazol-2-yl)urea], the inhibition at 1 µM is less than 50%.
As for `CN1CCC2(CC1)CC(NC(=O)Nc1cccc3cnccc13)c1ccccc1O2` (racemic) [Example 1, (±) 1-{3,4-Dihydro-1′-(methyl)spiro-[2H-1-benzopyran-2,4′-piperidine]-4-yl}-3-(isoquinoline-5-yl)urea], the inhibition at 1 µM amounted to 142%.
On to `Cc1ccc2c(c1)OC1(CCC1)CC2NC(=O)Nc1cccc2cnccc12` (racemic) [Example 41, (±) 1-(3,4-Dihydro-7-methyl-spiro[2H-1-benzopyran-2,1′-cyclobutane]-4-yl-3-(isoquinolin-5-yl)urea], for which the inhibition at 1 µM is more than 50% and the IC50 is 0.48 nM.
Taken in the same sequence, the figures for `O=C(Nc1cccc2cnccc12)NC1CC2(CCC2)Oc2ccc(F)cc21` (racemic) [Example 42, (±) 1-(3,4-Dihydro-6-fluoro-spiro[2H-1-benzopyran-2,1′-cyclobutane]-4-yl)-3-(isoquinolin-5-yl)urea] were more than 50% and 11.9 nM.
Turning to `O=C(Nc1cccc2cnccc12)NC1CC2(CCC2)Oc2cc(Cl)c(Cl)cc21` (racemic) [Example 68, (±) 1-(6,7-Dichloro-3,4-dihydro-spiro[2H-1-benzopyran-2,1′-cyclobutane]-4-yl)-3-(isoquinolin-5-yl)urea], the inhibition at 1 µM was more than 50% and the IC50 came out at 222 nM.
